In patent US10342806B2, “Hormone treatment for age-related hearing loss-presbycusis” (priority 2014, dated 2019):

Experiments:
NKCC1 [1] = assay: NKCC1 protein expression in HT-29 cells, Western blot; type: cell-based, human
Text: Cell culture and buffers. […] Arch Oral Biol 52: 411-416, 2007). These include, for example, studies of COMM domain-containing protein 1, which is involved in NKCC1 ubiquitination and transcriptional regulation of epithelial Na^+ channels (ENaC) located in the apical membrane of polarized epithelial cells, in particular, cells in the colon, kidney, and lung, by ALD (Cohen, et al., Induced differentiation in HT29, a human colon adenocarcinoma cell line. J Cell Sci 112: […], 1999, Epple, et al., Early aldosterone effect in distal colon by transcriptional regulation of ENaC subunits. Am J Physiol Gastrointest Liver Physiol 278: G718-G724, 2000, Smith, et al., COMMD1 interacts with the COOH terminus of NKCC1 in Calu-3 airway epithelial cells to modulate NKCC1 ubiquitination. Am J Physiol Cell Physiol 305: C133-C146, 2013). HT-29 cells were grown in DMEM media (Invitrogen, Carlsbad Calif.) with 10% FBS and antibiotics. Cells were grown in a humidified 95%/5% CO2 incubator at 37° C. Experiments were performed at 70-80% confluence.
Western blot. Cell lysates were prepared in RIPA buffer (Pierce 89901; Thermo Scientific, Waltham, Mass.) with protease inhibitor cocktail (78430; Thermo Scientific). Cell samples were homogenized in buffer, followed by centrifugation at 2,000 rpm for 10 min at 4° C. Supernatants were subjected to Western blot analysis by loading 200 μg of protein per lane, after the protein concentrations were determined by Bradford protein assay. Proteins were fractionated by SDS-PAGE gel electrophoresis and transferred to a PVDF blotting membrane (Whatman, Piscataway, N.J.). The blot was incubated with primary antibodies against β-actin and Na—K-2C1 cotransport protein (Cell Signaling, Danvers Mass.); primary antibodies for p-SGK1, SGK1, pNedd4-2, and Nedd4-2 were utilized (concentration 1:1,000). The secondary antibody was horseradish peroxidaseconjugated goat anti-rabbit IgG (1:2,000; Cell Signaling).
Statistical analysis. Images from films were imported into Adobe Photoshop (v 5.0), and further processed using Adobe Photoshop CS and ImageJ (National Institutes of Health) for the densitometry analysis. Data are reported as means±SD. Statistical analyses were performed with PRISM 4.0 (GraphPad Software, San Diego Calif.). Differences were analyzed with a one- or a two-way repeated measures ANOVA as appropriate or a two-way ANOVA followed by Bonferroni post hoc analyses that were corrected for multiple comparisons. Values of P <0.05 were considered significant.

[2] = test system: mineralocorticoid receptors (MCR); assay: MCR expression in spiral ganglion neurons (western blot, immunohistochemistry); type: in vivo, mouse; details: middle-aged mice, ALD treatment vs young adult and middle age controls
Protocol: Death was confirmed by terminal phlebotomy/exsanguinations and perfusion.
After sacrifice, a cochlear modiolus (CM) was dissected from the temporal bone, & pooled together for measuring NKCC1 protein and mRNA expression. The other CM was prepared for immunohistochemistry as described below. Data was analyzed using one-way ANOVA, and two-way repeated measures ANOVA through GraphPad Prism 5.0 with protein level measurements (Δ Intensity=Background tissue intensity−experimental area intensity) (GraphPad Software, La Jolla, Calif.).
For Western blot and RT-PCR, cells were placed in RIPA buffer and sonicated. Protein concentration was measured using the Bradford method. Proteins were separated by SDS-PAGE. […]
For immunohistochemistry, mice were sacrificed, and one of the cochleae dissected, fixed in 4% paraformaldehyde in PBS overnight at 4° C., decalcification in 10% EDTA in PBS for a week at 4° C., and incubated in cryoprotection solution overnight at 4° C. […] The spiral ganglion neurons were counted by Metamorph imaging software (Molecular Devices, Center Valley, Pa. 18034-0610) and data analyzed by GraphPad Prism (GraphPad Software, Inc. La Jolla, Calif.).
Levels of staining for MCR presence in young adult and middle-aged mice was determined by densitometry analysis (MetaMorph Image Analysis System) of immunocytochemistry sections.

NKCC1 [3] = details: Jiang et al. 2003, cited from earlier work

C[C@]12CCC(=O)C=C1CC[C@@H]1[C@@H]2[C@@H](O)C[C@]2(C=O)[C@@H](C(=O)CO)CC[C@@H]12 [ALD, aldosterone]
induction of NKCC1 protein expression (NKCC1 [1]; ALD 1 μM, MG-132 20 μM, CQ 50 μM, 9 h): induce NKCC1 protein expression similarly
decline of NKCC1 protein levels in response to cycloheximide (NKCC1 [1]; ALD 1 μM, cycloheximide 20 μg/ml, 3, 6, or 9 h, relative to nontreated cells): much slower
threshold of NKCC1 induction (significant response) (NKCC1 [1]; HT-29 cells): ~10 pM
time by which NKCC1 up-regulation took effect (NKCC1 [1]; HT-29 cells, ALD 1 μM): ≤ 2 h
NKCC1 protein expression levels (NKCC1 [1]; HT-29 cells, ALD 1 μM, stable over 12-24 h): upregulated
start of NKCC1 induction after treatment (NKCC1 [1]; HT-29 cells, ALD (1 nM)): 30 to 40 min
MCR expression levels, densitometry of immunocytochemistry sections [2]: partially rescued the expression levels seen in the young adult
NKCC1 transcripts, real-time polymerase chain reaction (NKCC1 [3]): did not elevate NKCC1 transcripts
increase in NKCC1 activity (NKCC1 [3]; adrenalectomized rats, multiday treatment): 63%
